Key:
PDX-1 = experiment: Gene expression in islets from diabetic KKAy-mice, real time RT-PCR (Example 2): PDX-1; format: in vivo; conditions: islets of KKAy-mice after nine weeks treatment, normalized to 18S rRNA
Experimental: (§1) A the end of the nine week period of the in vivo study in example 1 RNA was purified from Islets, muscle, liver and fat from the three experimental groups, using standard techniques as described in Kiergen, RNA easy.
(§2) Gene expression of PDX-1, IRS1, Beta2, 11beta-HSD-1, Akt1, C/EBP-alpha, CPT1, GLUT2, IGF1, IR and Ins1 was measured with Real time RT-PCR using Taq Man Assays normalized to 18S rRNA, using the standard protocol (ABI, USA). All reagents were obtained from (ABI, USA). All probes are standard probes obtainable from ABI, USA, under the specific probe code number, given in respect of each gene.

IGF-1 = experiment: Gene expression in islets from diabetic KKAy-mice, real time RT-PCR (Example 2): IGF-1; format: in vivo; conditions: islets of KKAy-mice after nine weeks treatment, normalized to 18S rRNA
Experimental: as §1, §2

Pdx1/Ipf1 = experiment: Relative real time RT-PCR in islets of KKAy mice (Example 3): Pdx1/Ipf1; format: in vivo; conditions: 9 weeks
Experimental: Islets were isolated by the collagenase digestion technique. In brief, the animals were anesthetized with pentobarbital (50 mg/kg intraperitoneally) and midline laparotomy was performed. The pancreas was retrogradely filled with 3 mL ice-cold Hanks balanced salt solution (([HBSS] Sigma Chemical, St Louis, Mo.) supplemented with 0.3 mg/ml collagenase Boehringer Mannheim GmbH, Germany). The pancreas was subsequently removed and incubated for 19 minutes at 37° C. After rinsing in HBSS, the islets were handpicked under a stereomicroscope and immediately transferred to a tubes containing 1 ml Trizol (Gibco/Invitrogene, Calsbad, Calif., USA). The islets isolated from the NMRI mice were incubated overnight at 37° C. and 95% normal atmosphere/5% CO2 in 10 ml RPMI 1640 containing 11.1 mmol/L glucose supplemented with penicillin G and 100 μg/mL streptomycin (all Gibco/Invitrogene, Calsbad, Calif., USA).
For each group, islets from 3-4 mice (180-200 islets) were pooled in 1 ml Trizol reagent (Gibco/lnvitrogene, Calsbad, Calif., USA) before RNA purification. Total RNA was extracted according to the manufactures' instructions. RNA was quantified by measuring absorbance at 260 and 280 nm. The quality of the RNA was checked by the Agilent 2100 bioanalyzer (Agilent, Santa Clara, USA). […]

visfatin = experiment: Affymetrix gene chip analysis of KKAy islets: visfatin; format: in vivo, mice; conditions: ISV vs. KKAy control islets, 9 weeks
Experimental: (§3) cRNA preparation and in vitro transcription: In total 6 Affymetrix arrays MOE430 2.0 probe array cartridge were used i.e. for analysis of 3 replicas for the KKAy control group and the ISV group, respectively. Each of the 6 samples consisted of pooled RNA from 3-4 KKAy mice. Preparation of target for hybridization was prepared from 340 ng of total RNA using MessageAmp™ II aRNA Amplification Kits (Ambion), according to the manufacturers instructions. Arrays were hybridised and scanned as described elsewhere (Kruhoffer et al., 2005).

Somatostatin = experiment: Affymetrix gene chip analysis of KKAy islets: Somatostatin; format: in vivo, mice; conditions: ISV vs. KKAy control islets, 9 weeks
Experimental: as §3

Compound: C[C@@]12CC[C@@H]3[C@@](CC[C@H]4[C@@]3(C)CCC[C@@]4(C)C(=O)O)(CC1=O)C2 (single isomer, unassigned; ent-16) [ISV, ent-16-ketobeyeran-19-oic acid]
- increased expression of PDX-1 compared to standard diet (PDX-1): 96%
- decreased expression of IGF1 compared to standard diet (IGF-1): 46%
- up regulation of Pdx1 (Pdx1/Ipf1; RT-PCR): ~2 fold
- increased expression of Pdx1/Ipf1, ISV group vs. control group (Pdx1/Ipf1; normalized to 18S rRNA): 96%
- array: change of visfatin expression (visfatin): no changes
- array: increased expression in Somatostatin (Somatostatin): 2.3 fold

Source: patent US20100093861A1, “TREATMENT OF INSULIN RESISTANCE OR DISEASES ASSOCIATED WITH INSULIN RESISTANCE” (Stevia ApS, priority 2006, published 2010)
